In patent US6825209B2, “Compounds having unique CB1 receptor binding selectivity and methods for their production and use” (Research Triangle Institute, priority 2002, dated 2004):
Like-named read-outs stand apart in the source and are kept apart here.

What was measured:
Format in all cases: binding
human CB2 receptor = target: T1, human CB2 receptor (Homo sapiens, UniProt P34972); test: Displacement of 3H-CP55,940 in human CB2 receptor-transfected cells (CHO-K1); settings: radioligand 3H-CP55940, Tables 6 and 7
T1 construct: expressed in transfected cells; host or cells: CHO-K1
Protocol: Human CB2 receptor affinity. The relative selectivity of the analogs for CB1 versus CB2 receptors varied modestly regardless of the structural modifications examined to date.
(§1) Methods—binding assay in transfected cell lines. The methods used for performing binding assays in transfected cells expressing human CB1 or CB2 receptors are those used above. The CB1 receptor involved a HEK-293 expression system whereas the CB2 receptor was expressed in CHO-K1 cells. […] The incubations and separations were then performed as described above for rat brain membrane preparations.
(§2) Data analysis. Saturation and displacement data were analyzed by unweighted nonlinear regression of receptor binding data. For displacement studies, curve-fitting and IC50 calculation were done with GraphPad Prism (GraphPad Software, Inc., San Diego, Calif.), which fits the data to one and two-site models and compares the two fits statistically. A similar approach was used for the analysis of isotherm data for calculation of Kd's. A two-site fit was accepted only if it was statistically significant (p<0.05) and the following results were not observed:
(§3) IC50 values were then converted to Ki values by reported methods (Cheng and Prusoff, 1973). The statistical evaluation of curve-fitting data allowed for a non-arbitrary conclusion based on the displacement data.

CB1 receptor = target: T2, CB1 receptor (Rattus norvegicus, UniProt P20272); test: Radioligand displacement in whole rat brain (CB1) membrane preparations
T2 construct: Whole rat brains or dissected regions from live CD rats; tissue Charles River or Pel-Freez Biologicals; host or cells: whole rat brain (CD rats), P2 membrane
Description: CB1 receptor affinity in rat brain.
Methods—membrane preparation from brain. The methods for tissue preparation are essentially those described by Devane et al. (1988) as modified by Compton et al. (1993) and later by Thomas et al. (1998). Whole rat brains or dissected regions from live CD rats from Charles River or Pel-Freez Biologicals (Rogers, Ark.), or human brain sections obtained from the National Disease Research Institute, were allowed to thaw to room temperature on ice. Both whole brain and dissected brain regions were used because different brain regions may express different cannabinoid receptor subtypes (Skaper et al., 1996; Thomas et al., 1998). The tissue was homogenized with a Kontes Potter-Elvehjem glass-Teflon grinding system (Fisher Scientific, Springfield, N.J.) in buffer 1 (320 mM sucrose, 2 mM EDTA, 5 mM MgCl2. The homogenate was centrifuged at 1600 g for 10 min. The supernatant was saved and combined with the two subsequent supernatants obtained from washing and 1600 g centrifugation of the P1 pellet. The combined supernatant fractions were then centrifuged at 39,000 g for 15 min. The P2 pellet was resuspended in 50 mL of buffer 2 (50 mM Tris.HCl, 2 mM EDTA, 5 mM MgCl2, pH 7.0), incubated at 37° C. for 10 min, then centrifuged at 23,000 g for 10 min. The P2 membrane was resuspended in 50 mL of buffer 2, incubated at 30° C. for 40 min, then centrifuged at 11,000 g for 15 min. The final wash-treated P2 pellet was resuspended in assay buffer 3 (50 mM Tris.HCl, 1 mM EDTA, 3 MM MgCl2, pH 7.4). Protein concentrations were determined by the method of Bradford (1976) using Coomassie brilliant blue dye (Bio-Rad, Richmond, Calif.) and BSA standards (bovine serum albumin, fatty acid free, Sigma Chemical Co., St. Louis, Mo.) prepared in assay buffer 3. The membrane preparation was divided into aliquots and stored at −80° C. For use in the binding assay, an aliquot of frozen membranes was thawed on ice and diluted to a concentration of ca. 0.2 mg/mL in assay buffer.
Methods—binding assay in brain membrane preparation. The methods for ligand binding are essentially those described by Devane et al. (1988) with the exception that we used a filtration assay. […] All cannabinoid analogs were prepared by suspension in buffer A from a 1-5 mg/mL ethanolic stock. Following incubation at 30° C. for 1 h, binding was terminated by vacuum filtration through pretreated filters in a 96-well sampling manifold (Millipore, Bedford, Mass.). Reaction vessels were washed at least 3 times with 1 mL of ice cold buffer B (50 mM Tris.HCl, 1 mg/mL BSA). The filter plates were air-dried and sealed on the bottom. Liquid scintillant was added to the wells and the top sealed. After incubating the plates in cocktail for at least 2 h, the radioactivity present was determined by liquid scintillation spectrometry. Assays were done in duplicate, and results represent the combined data of three to six independent experiments. All assays were performed in polypropylene test tubes. The GF/C glassfiber filter plates (Packard, Meriden, Conn.) were pretreated in buffer B for at least 1 h.
as §2, §3

human CB1 receptor = target: T3, human CB1 receptor (Homo sapiens, UniProt P21554); test: Radioligand displacement in human CB1 receptor-transfected cells (HEK-293)
T3 construct: expressed in transfected cells; host or cells: HEK-293
Protocol: Human CB1 receptor affinity. The alkyl amide analogs of the present invention were examined using transfected cell lines expressing the human CB1 receptor (Table 3).
as §1, §2, §3

[1] = whole rat brain membranes, radioligand 3H-CP55940, Tables 1 and 2
[2] = whole rat brain membranes, radioligand 3H-SR141716A, Tables 1 and 2
[3] = displacement of 3H-CP55940, human CB1 transfected cells, 3H-CP55940, Table 5, parallel synthesis analogs, concentration assumes 100% yield
[4] = displacement of 3H-SR141716A, human CB1 transfected cells, 3H-SR141716A, Table 5, parallel synthesis analogs, concentration assumes 100% yield
[5] = displacement of 3H-WIN55212-2, human CB1 transfected cells, 3H-WIN55212-2, Table 5, parallel synthesis analogs, concentration assumes 100% yield
[6] = human CB1 transfected cells, 3H-CP55940, Table 5, parallel synthesis analogs
[7] = human CB1 transfected cells, 3H-SR141716A, Table 5, parallel synthesis analogs
[8] = human CB1 transfected cells, 3H-WIN55212-2, Table 5, parallel synthesis analogs
[9] = Ki, displacement of 3H-CP55940, whole rat brain, 3H-CP55940, Table 4, parallel synthesis analogs, n = 1, concentration assumes 100% yield
[10] = Ki, displacement of 3H-SR141716A, whole rat brain, 3H-SR141716A, Table 4, parallel synthesis analogs, n = 1, concentration assumes 100% yield
[11] = Ki, displacement of 3H-WIN55212-2, whole rat brain, 3H-WIN55212-2, Table 4, parallel synthesis analogs, n = 1, concentration assumes 100% yield
[12] = whole rat brain, 3H-CP55940, Table 4, parallel synthesis analogs, n = 1
[13] = whole rat brain, 3H-SR141716A, Table 4, parallel synthesis analogs, n = 1
[14] = whole rat brain, 3H-WIN55212-2, Table 4, parallel synthesis analogs, n = 1

T1 sequence (P34972 whole entry): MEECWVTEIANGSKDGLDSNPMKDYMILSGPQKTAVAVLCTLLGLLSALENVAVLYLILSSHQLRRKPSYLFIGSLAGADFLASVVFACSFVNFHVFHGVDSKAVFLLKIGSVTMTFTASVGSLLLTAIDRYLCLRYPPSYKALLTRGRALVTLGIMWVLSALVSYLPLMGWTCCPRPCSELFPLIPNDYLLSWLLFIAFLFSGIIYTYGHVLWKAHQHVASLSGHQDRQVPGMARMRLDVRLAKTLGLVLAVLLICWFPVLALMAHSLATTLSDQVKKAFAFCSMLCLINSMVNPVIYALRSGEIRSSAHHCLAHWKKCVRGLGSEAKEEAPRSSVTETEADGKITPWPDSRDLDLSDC
T3 sequence (P21554 whole entry): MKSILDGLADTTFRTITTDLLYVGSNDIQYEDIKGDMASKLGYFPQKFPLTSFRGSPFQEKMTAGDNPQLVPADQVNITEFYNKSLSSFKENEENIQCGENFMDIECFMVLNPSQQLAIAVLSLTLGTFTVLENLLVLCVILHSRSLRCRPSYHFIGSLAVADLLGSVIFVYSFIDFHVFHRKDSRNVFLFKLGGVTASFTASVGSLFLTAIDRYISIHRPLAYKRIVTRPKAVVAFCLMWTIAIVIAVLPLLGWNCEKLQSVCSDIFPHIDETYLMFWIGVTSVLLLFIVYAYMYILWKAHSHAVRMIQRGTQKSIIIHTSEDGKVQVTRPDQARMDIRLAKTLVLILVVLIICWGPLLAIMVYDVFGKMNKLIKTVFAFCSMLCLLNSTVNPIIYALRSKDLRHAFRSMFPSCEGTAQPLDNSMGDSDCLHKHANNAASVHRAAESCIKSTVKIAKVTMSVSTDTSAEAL
T2 sequence (P20272 whole entry): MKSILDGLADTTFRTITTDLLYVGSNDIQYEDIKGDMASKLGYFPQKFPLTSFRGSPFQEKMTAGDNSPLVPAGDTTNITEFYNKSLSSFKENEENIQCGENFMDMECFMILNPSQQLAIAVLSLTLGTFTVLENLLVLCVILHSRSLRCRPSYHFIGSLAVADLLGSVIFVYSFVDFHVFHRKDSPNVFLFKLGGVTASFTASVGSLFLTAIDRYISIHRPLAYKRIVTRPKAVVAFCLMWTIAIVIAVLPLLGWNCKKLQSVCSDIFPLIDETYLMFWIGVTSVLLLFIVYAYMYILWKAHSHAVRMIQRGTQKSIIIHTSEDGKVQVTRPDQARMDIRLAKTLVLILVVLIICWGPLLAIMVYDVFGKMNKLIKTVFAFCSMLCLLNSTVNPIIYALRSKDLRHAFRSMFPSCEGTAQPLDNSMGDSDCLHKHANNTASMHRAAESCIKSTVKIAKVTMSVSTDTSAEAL

Row | Compound | Max. Disp. %, 3H-CP55940 (human CB2 receptor; human CB2 transfected cells) [%] | Max. Disp. %, 3H-CP55940 (CB1 receptor; [1]) [%] | Max. Disp. %, 3H-SR141716A (CB1 receptor; [2]) [%] | Ki (human CB1 receptor; [3]) [nM] | Ki (human CB1 receptor; [4]) [nM] | Ki (human CB1 receptor; [5]) [nM] | Max. Disp. %, 3H-CP55940 (human CB1 receptor; [6]) [%] | Max. Disp. %, 3H-SR141716A (human CB1 receptor; [7]) [%] | Max. Disp. %, 3H-WIN55212-2 (human CB1 receptor; [8]) [%] | Ki (CB1 receptor; [9]) [nM] | Ki (CB1 receptor; [10]) [nM] | Ki (CB1 receptor; [11]) [nM] | Max. Disp. %, 3H-CP55940 (CB1 receptor; [12]) [%] | Max. Disp. %, 3H-SR141716A (CB1 receptor; [13]) [%] | Max. Disp. %, 3H-WIN55212-2 (CB1 receptor; [14]) [%] | also measured
1 | Cc1c(C(=O)NO)nn(-c2ccc(Cl)cc2Cl)c1-c1ccc(Cl)cc1 [MF9725-131-25] | 27.0 | 58.4 | 65.7 | – | – | – | – | – | – | – | – | – | – | – | – | Ki (human CB2 receptor; read-out: Ki, displacement of 3H-CP55940, human CB2 transfected cells): 7820 nM; Ki (CB1 receptor; read-out: Ki, displacement of 3H-CP55940, whole rat brain membranes, radioligand 3H-CP55940, Tables 1 and 2): 1690 nM; Ki (CB1 receptor; read-out: Ki, displacement of 3H-SR141716A, whole rat brain membranes, radioligand 3H-SR141716A, Tables 1 and 2): 1560 nM
2 | CCCCCCC(C)(C)NC(=O)c1nn(-c2ccc(Cl)cc2Cl)c(-c2ccc(Cl)cc2)c1C [MF10110-119-11] | 52.8 | 83.2 | 76.4 | – | – | – | – | – | – | – | – | – | – | – | – | Max. Disp. %, 3H-SR141716A (human CB1 receptor): 99.9%; Max. Disp. %, 3H-WIN55212-2 (human CB1 receptor): 86.5%; Ki (human CB1 receptor; displacement of 3H-CP55940): 32.7 nM; Ki (human CB1 receptor; displacement of 3H-SR141716A): 5 nM; Ki (human CB1 receptor; displacement of 3H-WIN55212-2): 14.4 nM; Ki (human CB2 receptor; Ki, displacement of 3H-CP55940, human CB2 transfected cells): 16600 nM; Ki (CB1 receptor; Ki, displacement of 3H-CP55940, whole rat brain membranes, radioligand 3H-CP55940, Tables 1 and 2): 181 nM; Ki (CB1 receptor; Ki, displacement of 3H-SR141716A, whole rat brain membranes, radioligand 3H-SR141716A, Tables 1 and 2): 21.6 nM; Ki (CB1 receptor; Ki, displacement of 3H-WIN55212-2, whole rat brain membranes, radioligand 3H-WIN55212-2, Tables 1 and 2): 10.4 nM; Max. Disp. %, 3H-WIN55212-2 (CB1 receptor; whole rat brain membranes, radioligand 3H-WIN55212-2, Tables 1 and 2): 72.2%
3 | Cc1c(C(=O)N2CCC(O)(c3ccccc3)CC2)nn(-c2ccc(Cl)cc2Cl)c1-c1ccc(Cl)cc1 [AM-28] | – | – | – | 52.1 | 28.2 | 56.9 | 79.6 | 99.2 | 100 | 113 | 41.2 | 69.5 | 97.2 | 97.2 | 94.4 | –
4 | CCCCCCCCCC(C)NC(=O)c1nn(-c2ccc(Cl)cc2Cl)c(-c2ccc(Cl)cc2)c1C (stereo not drawn) [AKS-10262-3] | – | – | – | 41.1 | 7 | 22.2 | 77.7 | 90.0 | 76.1 | 27.1 | 9.7 | 22.3 | 83.7 | 97.3 | 82.4 | –
5 | COc1ccc(CCNC(=O)c2nn(-c3ccc(Cl)cc3Cl)c(-c3ccc(Cl)cc3)c2C)cc1 [AM-29] | – | – | – | 56.9 | 16.1 | 74.5 | 80.3 | 96.3 | 100 | 92.6 | 40.7 | 24.7 | 78.8 | 95.1 | 82.7 | –
6 | CCC(C)CC(C)NC(=O)c1nn(-c2ccc(Cl)cc2Cl)c(-c2ccc(Cl)cc2)c1C (stereo not drawn) [AKS-10262-6] | – | – | – | 9.4 | 2.2 | 23.9 | 86.5 | 100 | 78.7 | 9.6 | 2.3 | 13.7 | 91.4 | 96.3 | 89.9 | –
7 | Cc1c(C(=O)O)nn(-c2ccc(Cl)cc2Cl)c1-c1ccc(Cl)cc1 [SH9631-55] | 0.0 | 8.2 | 0 | – | – | – | – | – | – | – | – | – | – | – | – | Ki, displacement of 3H-CP55940 (human CB2 receptor; human CB2 transfected cells): nr; Ki, displacement of 3H-SR141716A (CB1 receptor; [2]): Nr
8 | Cc1c(C(=O)NCCc2ccc(O)cc2)nn(-c2ccc(Cl)cc2Cl)c1-c1ccc(Cl)cc1 [AM-52] | – | – | – | 106 | 13.6 | 162 | 96.1 | 99.5 | 100 | 71.4 | 29.8 | 326 | 84.7 | 100 | 94.9 | –
9 | COCC(C)NC(=O)c1nn(-c2ccc(Cl)cc2Cl)c(-c2ccc(Cl)cc2)c1C (stereo not drawn) [AM-17] | – | – | – | 39.8 | 17.6 | 30.9 | 86.3 | 98.7 | 96.8 | 64.4 | 22.8 | 22.6 | 96.2 | 94.1 | 84.8 | –
10 | CCCCCCCCCCCNC(=O)c1nn(-c2ccc(Cl)cc2Cl)c(-c2ccc(Cl)cc2)c1C [BT-7] | – | – | – | 45.6 | 5.2 | 11.7 | 82.4 | 96.9 | 54.9 | 168 | 25.5 | 278 | 86.4 | 83.8 | 90.3 | –
